Experimental data published in US20240239811A1, “5-(5-(PIPERIDIN-4-YL)THIENO[3,2-C]PYRAZOL-2-YL]INDAZOLE DERIVATIVES AND RELATED COMPOUNDS AS MODULATORS FOR SPLICING NUCLEIC ACIDS AND FOR THE T” (REMIX THERAPEUTICS INC., priority 2020, published 2024).
Where a name gives a salt, the structure may show the parent alone.

Key:
Format in all cases: cell-based
HTT mRNA = assay: Splicing assay (RT-qPCR) monitoring HTT splice variants, canonical (CJ) and alternative (AJ) junction; settings: 50% response, A673 or K562 cell line, 24 hours; for IC50: decrease in CJ mRNA; for AC50: increase in AJ mRNA
Method: (§1) Compounds described herein were used to modulate RNA transcript abundance in cells. The expression of a target mRNA was measured by detecting the formation of an exon-exon junction in the canonical transcript (CJ). A compound mediated exon-inclusion event was detected by observing an increase in formation of a new junction with an alternative exon (AJ). Real-time qPCR assays were used to detect these splicing switches and interrogate the potency of various compounds towards different target genes. A high-throughput real time quantitative PCR (RT-qPCR) assay was developed to measure these two isoforms of the mRNA (CJ and AJ) for an exemplary gene, HTT, together with a control housekeeping gene, GAPDH or GUSB or PPIA, used for normalization. Briefly, the A673 or K562 cell line was treated with various compounds described herein (e.g., compounds of Formula (I)). After treatment, the levels of the HTT mRNA targets were determined from each sample of cell lysate by cDNA synthesis followed by qPCR.
• Cells-to-CT 1-step kit: ThermoFisher A25602, Cells-to-CT lysis reagent: ThermoFisher 4391851C, TaqMan™ Fast Virus 1-Step Master Mix: ThermoFisher 4444436 • GAPDH: VIC-PL, ThermoFisher 4326317E (Assay: Hs99999905_ml)—used for K562/suspension cell lines • GUSB: VIC-PL, ThermoFisher 4326320E (Assay: Hs99999908_ml)—used for K562/suspension cell lines • PPIA: VIC-PL, ThermoFisher 4326316E (Assay: Hs99999904_ml)—used for A673/adherent cell lines
(§2) The A673 cell line was cultured in DMEM with 10% FBS. Cells were diluted with full growth media and plated in a 96-well plate (15,000 cells in 100ul media per well). The plate was incubated at 37° C. with 5% CO2 for 24 hours to allow cells to adhere. An 11-point 3-fold serial dilution of the compounds was made in DMSO then diluted in media in an intermediate plate. Compounds were transferred from the intermediate plate to the cell plate with the top dose at a final concentration of 10 uM in the well. Final DMSO concentration was kept at or below 0.25%. The cell plate was returned to the incubator at 37° C. with 5% CO2 for an additional 24 hours.
(§3) The K562 cell line was cultured in IMDM with 10% FBS. For K562, cells were diluted with full growth media and plated in either a 96-well plate (50,000 cells in 50 uL media per well) or a 384-well plate (8,000-40,000 cells in 45 uL media per well). An 11-point 3-fold serial dilution of the compounds were made in DMSO then diluted in media in an intermediate plate. Compound was transferred from the intermediate plate to the cell plate with the top dose at a final concentration of 10 uM in the well. Final DMSO concentration was kept at or below 0.25%. Final volume was 100 uL for 96-well plate and 50 uL for 384-well plate. The cell plate was then placed in an incubator at 37° C. with 5% CO2 for 24 hours.
The cells were then gently washed with 50 uL-100 uL cold PBS before proceeding to addition of lysis buffer. 30 uL-50 uL of room temperature lysis buffer with DNAse I (and optionally RNAsin) was added to each well. Cells were shaken/mixed thoroughly at room temperature for 5-10 minutes for lysis to take place and then 3 uL-5 uL of room temperature stop solution was added and wells were shaken/mixed again. After 2-5 minutes, the cell lysate plate was transferred to ice for RT-qPCR reaction setup. The lysates could also be frozen at −80° C. for later use.
In some cases, a direct lysis buffer was used. An appropriate volume of 3X lysis buffer (10 mM Tris, 150 mM NaCl, 1.5%-2.5% Igepal and 0.1-1 U/uL RNAsin, pH 7.4) was directly added to either K562 or A673 cells in media and mixed by pipetting 3 times. The plates were then incubated at room temperature with shaking/rocking for 20-50 minutes to allow for lysis to take place. After this time, the cell lysate plate was transferred to ice to set up for the RT-qPCR reactions. The lysates could also be frozen at −80° C. for later use. […]

HTT CJ mRNA = assay: Gene panel canonical junction qPCR assay, HTT; settings: Table 6, decrease in CJ mRNA, read-out: HTT IC50 (decrease in CJ mRNA levels)
Method: as §1, §2, §3
(§4) The data analysis was performed by first determining the ΔCt vs the housekeeper gene. This ΔCt was then normalized against the DMSO control (ΔΔCt) and converted to RQ (relative quantification) using the 2^(−ΔΔCt) equation. The RQ were then converted to a percentage response by arbitrarily setting an assay window of 3.5 ΔCt for HTT-CJ and an assay window of 9 ΔCt for HTT-AJ. […] The percentage response was then fitted to the 4 parametric logistic equation to evaluate the concentration dependence of compound treatment. The increase in AJ mRNA is reported as AC50 (compound concentration having 50% response in AJ increase) while the decrease in CJ mRNA levels is reported as IC50 (compound concentration having 50% response in CJ decrease).
(§5) Additional studies were carried out for a larger panel of genes using the protocol provided above. The junction between flanking upstream and downstream exons was used to design canonical junction qPCR assays. At least one of the forward primer, reverse primer or the CY5-labeled 5′ nuclease probe (with 3′ quencher such as ZEN/Iowa Black FQ) was designed to overlap with the exon junction to capture the CJ mRNA transcript. BLAST was used to confirm the specificity of the probeset and parameters such as melting temperature, GC content, amplicon size, and primer dimer formation are considered during their design. Data for the decrease in CJ mRNA levels for three exemplary genes (HTT, SMN2, and Target C) analyzed in this panel are reported as IC50 (compound concentration having […] in CJ decrease).

SMN2 CJ mRNA = assay: Gene panel canonical junction qPCR assay, SMN2; settings: Table 6, decrease in CJ mRNA, read-out: SMN2 IC50 (decrease in CJ mRNA levels)
Method: as §1, §2, §3, §4, §5

Target C CJ mRNA = assay: Gene panel canonical junction qPCR assay, Target C; settings: Table 6, decrease in CJ mRNA, read-out: Target C IC50 (decrease in CJ mRNA levels)
Method: as §1, §2, §3, §4, §5

Compound	IC50 (HTT mRNA)	AC50 (HTT mRNA)	IC50 (HTT CJ mRNA)	IC50 (SMN2 CJ mRNA)	IC50 (Target C CJ mRNA)
COc1c(-c2cc3cn(C4CCNCC4)nc3s2)nn2cc(C)nc(C)c12 [Compound 219, 4-(5-{3-methoxy-4,6-dimethylpyrazolo[1,5-a]pyrazin-2-yl}thieno[2,3-c]pyrazol-2-yl) piperidine]	> 10000 nM	> 10000 nM	> 10000 nM	1000 to 10000 nM	> 10000 nM
Cc1cc(-c2nc3sc(C4CCNCC4)cc3s2)cc2cn(C)nc12 [Compound 238, 2,7-dimethyl-5-[5-(piperidin-4-yl)thieno[2,3-d][1,3]thiazol-2-yl]indazole]	< 100 nM	< 100 nM	< 100 nM	< 100 nM	100 to 1000 nM
Cn1cc2cc(-c3cc4cn(C5CCNCC5)nc4s3)c(O)cc2n1 [Compound 209, 2-methyl-5-[2-(piperidin-4-yl)thieno[2,3-c]pyrazol-5-yl]indazol-6-ol]	100 to 1000 nM	1000 to 10000 nM	100 to 1000 nM	100 to 1000 nM	1000 to 10000 nM
Cn1cc2cc(-c3cc4cn([C@@H]5CCNC5)nc4s3)cc(F)c2n1 [Compound 160, (R)-5-(7-fluoro-2-methyl-2H-indazol-5-yl)-2-(pyrrolidin-3-yl)-2H-thieno[2,3-c]pyrazole hydrochloride]	1000 to 10000 nM	1000 to 10000 nM	1000 to 10000 nM	100 to 1000 nM	> 10000 nM
Cn1cc2cc(-c3cc4cn([C@H]5CCNC[C@H]5F)nc4s3)cc(F)c2n1 (stereo in doubt) [Compound 182]	< 100 nM	100 to 1000 nM	< 100 nM	< 100 nM	100 to 1000 nM
Cn1cc2cc(-n3cc4sc(C5CCNCC5)cc4n3)ccc2n1 [Compound 100, 2-methyl-5-[5-(piperidin-4-yl)thieno[3,2-c]pyrazol-2-yl]indazole]	–	1000 to 10000 nM	–	–	> 10000 nM
Cn1cc2c(F)cc(-n3cc4cc(C5CCNCC5)sc4n3)cc2n1 [Compound 174]	> 10000 nM	> 10000 nM	> 10000 nM	1000 to 10000 nM	> 10000 nM
Cn1cc2cc(-n3cc4sc(C5CCNCC5)cc4n3)c(O)cc2n1 [Compound 178]	1000 to 10000 nM	1000 to 10000 nM	1000 to 10000 nM	1000 to 10000 nM	1000 to 10000 nM
Cc1cn2nc(-c3cc4cn([C@H]5CCNC[C@@H]5F)nc4s3)cc(C)c2n1 (mixture of isomers) [Compound 212, 5-(2,8-dimethylimidazo[1,2-b]pyridazin-6-yl)-2-((1:1 mixture of 3S,4S and 3R,4R)-3-fluoropiperidin-4-yl)-2H-thieno[2,3-c]pyrazole]	1000 to 10000 nM	1000 to 10000 nM	1000 to 10000 nM	100 to 1000 nM	> 10000 nM
CN1CCC2(CC1)CCN2c1cc2sc(-c3cc(F)c4nn(C)cc4c3)nc2s1 [Compound 204, 1-[2-(7-fluoro-2-methylindazol-5-yl)thieno[2,3-d][1,3]thiazol-5-yl]-7-methyl-1,7-diazaspiro [3.5]nonane]	1000 to 10000 nM	1000 to 10000 nM	1000 to 10000 nM	1000 to 10000 nM	1000 to 10000 nM
Cc1cn2cc(-n3cc4sc(C5CCNCC5)cc4n3)cc(F)c2n1 [Compound 166, 4-(2-{8-fluoro-2-methylimidazo[1,2-a]pyridin-6-yl}thieno[3,2-c]pyrazol-5-yl)piperidine]	100 to 1000 nM	100 to 1000 nM	100 to 1000 nM	100 to 1000 nM	1000 to 10000 nM
Cc1nc2c(F)cc(-c3nc4sc(C5CCNCC5)cc4s3)cc2s1 [Compound 126, 4-fluoro-2-methyl-6-[5-(piperidin-4-yl)thieno[2,3-d][1,3]thiazol-2-yl]-1,3-benzothiazole hydrochloride]	100 to 1000 nM	100 to 1000 nM	100 to 1000 nM	100 to 1000 nM	1000 to 10000 nM
Cn1cc2cc(-c3cc4cn([C@H]5CCNC[C@@H]5F)nc4s3)cc(F)c2n1 [Compound 190]	100 to 1000 nM	100 to 1000 nM	100 to 1000 nM	–	–
Cn1cc2cc(-c3nc4sc(C5CCNCC5)cc4s3)c(O)c(F)c2n1 [Compound 206, 7-fluoro-2-methyl-5-[5-(piperidin-4-yl)thieno[2,3-d][1,3]thiazol-2-yl]indazol-6-ol]	< 100 nM	< 100 nM	< 100 nM	< 100 nM	100 to 1000 nM
Cc1cn2cc(-n3cc4cc(C5CCNCC5)sc4n3)cc(C)c2n1 [Compound 155]	100 to 1000 nM	100 to 1000 nM	100 to 1000 nM	< 100 nM	1000 to 10000 nM
Cn1cc2c(O)c(-c3nc4sc(C5CCNCC5)cc4s3)ccc2n1 [Compound 231, 2-methyl-5-[5-(piperidin-4-yl)thieno[2,3-d][1,3]thiazol-2-yl]indazol-4-ol]	1000 to 10000 nM	1000 to 10000 nM	1000 to 10000 nM	100 to 1000 nM	> 10000 nM
Cn1cc2cc(-c3cc4cn(C5CCOCC5)nc4s3)cc(F)c2n1 [Compound 161, 7-fluoro-2-methyl-5-[2-(oxan-4-yl)thieno[2,3-c]pyrazol-5-yl] indazole]	> 10000 nM	> 10000 nM	> 10000 nM	> 10000 nM	> 10000 nM
Cn1cc2cc(-c3cc4nn(C5CCNCC5)cc4s3)cc(F)c2n1 [Compound 121, 7-fluoro-2-methyl-5-[2-(piperidin-4-yl)thieno[3,2-c]pyrazol-5-yl]indazole]	100 to 1000 nM	100 to 1000 nM	100 to 1000 nM	< 100 nM	–
Cc1cn2nc(-n3cc4cc(C5CCNCC5)sc4n3)cc(C)c2n1 [Compound 110, 4-(2-[2,8-dimethylimidazo[1,2-b]pyridazin-6-yl]thieno[2,3-c]pyrazol-5-yl) piperidine]	100 to 1000 nM	100 to 1000 nM	100 to 1000 nM	< 100 nM	–
